Test results reported in patent US20250250261A1, “NOVEL SUBSTITUTED FLUORINATED VINYL-N-PROPYL-PYRROLIDINE COMPOUNDS, PROCESSES FOR THEIR PREPARATION AND THERAPEUTIC USES THEREOF” (SANOFI, priority 2022, published 2025).

Target: T1, ERα (Homo sapiens, UniProt P03372)
T1 construct: host or cells: MCF7
T1 sequence (P03372 1-595): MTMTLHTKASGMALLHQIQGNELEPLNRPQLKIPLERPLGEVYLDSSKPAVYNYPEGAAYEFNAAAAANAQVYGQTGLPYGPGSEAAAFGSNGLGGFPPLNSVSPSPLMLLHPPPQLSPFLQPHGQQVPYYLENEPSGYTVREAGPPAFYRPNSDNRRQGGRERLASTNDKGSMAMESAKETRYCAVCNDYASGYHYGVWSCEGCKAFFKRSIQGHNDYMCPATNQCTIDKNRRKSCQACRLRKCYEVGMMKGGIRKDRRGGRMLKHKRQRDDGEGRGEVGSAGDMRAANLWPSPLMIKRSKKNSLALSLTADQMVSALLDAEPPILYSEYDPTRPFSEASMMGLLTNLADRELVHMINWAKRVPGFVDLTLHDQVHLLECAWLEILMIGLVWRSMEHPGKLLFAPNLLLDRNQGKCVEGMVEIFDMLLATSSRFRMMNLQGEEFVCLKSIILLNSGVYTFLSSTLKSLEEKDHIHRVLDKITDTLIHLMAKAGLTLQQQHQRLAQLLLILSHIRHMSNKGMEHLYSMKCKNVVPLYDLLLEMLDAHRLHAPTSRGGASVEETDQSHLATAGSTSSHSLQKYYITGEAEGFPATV
Assay: Estrogen receptor degradation activity: breast cancer cell ERα in cell western assay (MCF7 cells)
Format: cell-based
Settings: 4 hours, % of ERα levels decrease relative to fulvestrant (0.1 μM) and DMSO
Procedure: Test: Estrogen Receptor Degradation Activity
Said test involves measuring the in vitro degradation activity of the compounds of the Table 1a.
The measurements of the degradation activities were made using a breast cancer cell ERα in cell western assay as described hereunder.
MCF7 cells (ATCC) were seeded in 384 wells microplate (collagen coated) at a concentration of 10000 cells/30 μL per well in red phenol free MEM alpha medium (invitrogen) containing 5% charcoal dextran striped FBS. The following day, 9 points serial 1:5 dilution of each compound was added to the cells in 2.5 μL at final concentrations ranging from 0.3-0.0000018 μM (in table 2), or 0.1 μM for fulvestrant (using as positive control). At 4 hours post compound addition the cells were fixed by adding 25 μL of formalin (final concentration 5% formalin containing 0.1% triton) for 10 minutes at room temperature and then washed twice with PBS. Then, 50 μL of LI-COR blocking buffer containing 0.1% Triton was added to plate for 30 minutes at room temperature. LI-COR blocking buffer was removed and cells were incubated overnight at cold room with 50 μL anti-ER rabbit monoclonal antibody (Thermo scientific MA1-39540) diluted at 1:1000 in LI-COR blocking buffer containing 0.1% tween-20. Wells which were treated with blocking buffer but no antibody were used as background control. Wells were washed twice with PBS (0.1% tween-20) and incubated at 37° C. for 60 minutes in LI-COR (0.1% tween-20) containing goat anti-rabbit antibody Alexa 488 (1:1000) and Syto-64 a DNA dye (2 μM final concentration). Cells were then washed 3 times in PBS and scanned in ACUMEN explorer (TTP-Labtech). Integrated intensities in the green fluorescence and red fluorescence were measured to determine the levels of ERα and DNA respectively.
The degradation activity with respect to estrogen receptors in this test is given by the concentration which degrades 50% of the estrogen receptor (or IC50) in nM.
The % of ERα levels decrease were determined as follows: % inhibition=100*(1−(sample−fulvestrant:DMSO−fulvestrant)).

| SMILES | % Degradation At 0.3 μM [%] |
| --- | --- |
| Cc1cc(F)cc(C)c1C1=C(c2ccc(/C=C3/CCN(CCCF)C3)cc2)c2ccc(C(=O)O)cc2CCC1 [Compound 21, (Z)-8-(4-fluoro-2,6-dimethylphenyl)-9-(4-((1-(3-fluoropropyl)pyrrolidin-3-ylidene)methyl)phenyl)-6,7-dihydro-5H-benzo[7]annulene-3-carboxylic acid] | 94 |
| O=C(O)c1ccc2c(c1)CCCC(c1ccccc1C(F)(F)F)=C2c1ccc(/C=C2/CCN(CCCF)C2)cc1 [Compound 22, (Z)-9-(4-((1-(3-fluoropropyl)pyrrolidin-3-ylidene)methyl)phenyl)-8-(2-(trifluoromethyl)phenyl)-6,7-dihydro-5H-benzo[7]annulene-3-carboxylic acid] | 89 |
| O=C(O)c1ccc2c(c1)CCCC(c1ccc(Cl)cc1Cl)=C2c1ccc(/C=C2/CCN(CCCF)C2)c(F)c1 [Compound 23, (Z)-8-(2,4-dichlorophenyl)-9-(3-fluoro-4-((1-(3-fluoropropyl)pyrrolidin-3-ylidene)methyl)phenyl)-6,7-dihydro-5H-benzo[7]annulene-3-carboxylic acid] | 96 |
| Cl.O=C(O)c1ccc2c(c1)CCC(c1ccc(Cl)cc1Cl)=C2c1ccc(/C=C2/CCN(CCCF)C2)cc1 [Compound 24, (Z)-6-(2,4-dichlorophenyl)-5-(4-((1-(3-fluoropropyl)pyrrolidin-3-ylidene)methyl)phenyl)-7,8-dihydronaphthalene-2-carboxylic acid hydrochloride] | 91 |
| O=C(O)c1ccc2c(c1)CCCC(c1cccc(C(F)(F)F)c1)=C2c1ccc(/C=C2/CCN(CCCF)C2)cc1 [Compound 25, (Z)-9-(4-((1-(3-fluoropropyl)pyrrolidin-3-ylidene)methyl)phenyl)-8-(3-(trifluoromethyl)phenyl)-6,7-dihydro-5H-benzo[7]annulene-3-carboxylic acid] | 91 |
| O=C(O)c1ccc2c(c1)CCCC(c1ccc(C(F)(F)F)cc1)=C2c1ccc(/C=C2/CCN(CCCF)C2)cc1 [Compound 26, (Z)-9-(4-((1-(3-fluoropropyl)pyrrolidin-3-ylidene)methyl)phenyl)-8-(4-(trifluoromethyl)phenyl)-6,7-dihydro-5H-benzo[7]annulene-3-carboxylic acid] | 92 |
| O=C(O)c1ccc2c(c1)CCCC(c1cccc(Cl)c1)=C2c1ccc(/C=C2/CCN(CCCF)C2)cc1 [Compound 27, (Z)-8-(3-chlorophenyl)-9-(4-((1-(3-fluoropropyl)pyrrolidin-3-ylidene)methyl)phenyl)-6,7-dihydro-5H-benzo[7]annulene-3-carboxylic acid] | 93 |
| O=C(O)c1ccc2c(c1)CCCC(c1ccc(Cl)cc1)=C2c1ccc(/C=C2/CCN(CCCF)C2)cc1 [Compound 28, (Z)-8-(4-chlorophenyl)-9-(4-((1-(3-fluoropropyl)pyrrolidin-3-ylidene)methyl)phenyl)-6,7-dihydro-5H-benzo[7]annulene-3-carboxylic acid] | 93 |
| Cc1cc(C2=C(c3ccc(/C=C4/CCN(CCCF)C4)cc3)c3ccc(C(=O)O)cc3CCC2)c(C)cc1F [Compound 29, (Z)-8-(4-fluoro-2,5-dimethylphenyl)-9-(4-((1-(3-fluoropropyl)pyrrolidin-3-ylidene)methyl)phenyl)-6,7-dihydro-5H-benzo[7]annulene-3-carboxylic acid] | 92 |
| Oc1ccc2c(c1)SCCC(c1ccc(Cl)cc1Cl)=C2c1ccc(/C=C2/CCN(CCCF)C2)cc1 [Compound 30, (Z)-4-(2,4-dichlorophenyl)-5-(4-((1-(3-fluoropropyl)pyrrolidin-3-ylidene)methyl)phenyl)-2,3-dihydrobenzo[b]thiepin-8-ol] | 90 |
